One series deals with T1, ERK2 (Homo sapiens, UniProt P28482).
T1 construct: purchased Upstate, Millipore Bioscience Division (KinaseProfiler service)
The experiment in a line: Kinase panel screen (KinaseProfiler): ERK2. It counts as biochemical. The note with it: 10 μM ATP, read-out: Percent inhibition ERK2; for activity at 1 µM: 1 μM test compound; for activity at 10 µM: 10 μM test compound. Here is the method:
Compounds of Formulae I and II were examined for activity against a selected panel of kinases using the KinaseProfiler™ enzyme profiling services (Upstate, Millipore Bioscience Division). Percent kinase activity at 10 μM and 1 μM test compound and 10 μM ATP was determined against 40 wild-type recombinant human kinases according to Upstate's standard protocol: ASK1, BTK, CSK, c-RAF, GCK, GSK3β, IKKα, IKKβ, IRAK1, IRAK4, JNK1α1, JNK2α2, JNK3, ERK1, ERK2, MAPKAP-K2, MAPKAP-K3, MEK1, MKK4, MKK6, MKK7β, Mnk2, MSK1, PAK3, PDK1, PRAK, ROCK1, Rsk2, SAPK2a, SAPK2b, SAPK3, SAPK4, SRPK1, SRPK2, Syk, TAK1, TBK1, PI3-Kβ, PI3-Kγ, PI3-Kδ.

The subject of series [1] is ova-sensitized, ova-challenged mice. The experiment in a line: Prevention of airway hyperreactivity (Penh, methacholine) in mouse ovalbumin model. The series is classed as in vivo. Conditions: days 27 to 31; for airway hyperreactivity: intratracheal once a day. Here is the method: The anti-inflammatory dosing paradigm consists of dosing the animals once a day starting on day 27 and finishing on either day 30 or 31 (1 hr prior to the aerosolized ovalbumin challenges on days 28 to 30) but not on day 32 when hyperreactivity evaluation occurs. […] Exposure to the methacholine doses consisted of a 3 minute period during which a nebulizer was aerosolizing the methacholine and an additional 3 minute period following the cessation of nebulization. […] Enhanced pause (Penh), a unitless index of airway hyperreactivity, is derived from the expiratory side of the respiratory waveform measured via the plethysmograph and is used as an indirect measure of airway resistance and hyperreactivity. […] Following the methacholine dose response, BALF was collected and all animals were anesthetized, bled and euthanized. […] The Penh value at each of the dose levels of methacholine represents the 6-minute average response. Change from baseline (CFB) in Penh was calculated at each methacholine dose and the area under the curve (AUC) for these CFB values was calculated using the trapezoidal rule. This same approach was applied for each mouse across multiple experiments. […] Data from equal experimental conditions across experiments performed on different days were pooled for statistical analysis and data reporting. […] A random intercept for each experiment was assumed to account for possible similarities of the results obtained from a given experiment (i.e., as a “blocking effect”). […] For FIG. 9, linear AUC values from compound treated mice were reported as a percent of linear AUC values from vehicle-treated ovalbumin-sensitized/ovalbumin-challenged (asthmatic) mice.

Series [2] shares this test system. The series can be described thus: Mouse ovalbumin sensitization model: eosinophils in BALF. Conditions: dosed orally once a day, day 27 to day 31; FIG. 4. The series is classed as in vivo. Here is the method:
Male BALB/c mice were ordered from Charles River Laboratories (Raleigh, N.C.). The animals were approximately 19 to 21 grams at time of receipt. Upon arrival, the animals were randomized into groups of five males per cage and assigned to a dosing group. Animals were quarantined for 7 days under test conditions. They were observed daily for general health status and ability to adapt to the water bottles. Animals were sensitized on day 0 and 14 of study by an intraperitoneal injection with 20 μg of ovalbumin (ova) and 2.0 mg aluminum hydroxide (alum) which initiates the development of a specific T-helper (Th) cells type 2 resulting in asthmatic animals (denoted as Ova in the figures). One group of animals received an injection of saline to use as control animals (denoted as normal in the figures). All animals were challenged with aerosolized 1% ova once daily for 25 minutes on days 28, 29, and 30 (Zosky, et al. Respiratory Research. 2004; 5:15). Aerosol challenge consists of using an Aerogen Aeroneb nebulizer and controller with a particle size of 4-6 μm mass median aerodynamic diameter (MMAD) with a distribution of 400 μl per minute. This aerosol challenge is necessary to target the Th2-driven allergic inflammation in the lower airways. […]
Bronchoalveolar lavage fluid (BALF) was collected by infusing 3.0 ml of saline with 10% fetal calf serum into the lungs via the trachea and then withdrawing the fluid. The total amount of cells/ml of BALF fluid was determined via manual cell count on hemocytometer. The BALF was centrifuged, supernatant removed and analyzed for cytokine concentrations as described below, and cell pellet reconstituted in 500 μL of fluid. […] Following Hema3 stain, relative percentages of individual leukocytes were determined on a 200 cell count for each sample. The final concentration of individual leukocyte cell types per ml of BALF was determined by multiplication of the relative percentage of individual leukocytes with the total amount of cells/ml of BALF fluid.

Series [3] in a line: Rat oral pharmacokinetics (plasma). It counts as in vivo. The note with it: rat oral PK, mean n = 3 rats, 20-30 μmmol/kg.
Procedure: Plasma (EDTA K2 anticoagulant) was collected from male, cannulated, CD Sprague Dawley rats to determine the pharmacokinetics of formulations containing compound inhibitors of Rho kinase. Each animal was dosed orally with a 4 ml/kg solution or suspension of each test compound in 10 mM acetate buffered saline, pH 4.5 at a final concentration range of 20-30 μmmol/kg. Blood was collected at 0.25, 0.5, 1, 2, 4, 6, 8, and 24 hours. Plasma samples were assayed for the concentration of the test compound using an on-line, solid phase extraction LC/MS/MS analysis system.
Samples were analyzed on a QSTAR Elite, hybrid quadrupole time-of-flight mass spectrometer (Applied Biosystems, Framingham, Mass.) coupled with a Symbiosis Pharma integrated, on-line SPE-HPLC system (Spark Holland Inc., Plainsboro, N.J.). Analyst QS 2.0 software was used for instrument control, data acquisition and processing. […] Mobile Phase A consisted of 0.1% ammonium hydroxide in water and Mobile Phase B consisted of 0.1% formic acid in acetonitrile. Pharmacokinetic analyses were performed using WinNonlin software version 5.2 (Pharsight Corporation, Mountain View, Calif.).
As determined from the plasma concentration versus time curves, the time to peak and peak exposure are represented by the values Tmax and Cmax, respectively. The AUC values (nM*hr) shown were calculated as the areas under the plasma concentration versus time curves from time zero through the time of the last observable value and represent the total exposure of the compound over the course of the study. Half-life values or the amount of time required for the plasma levels of the compound to decline to half the initial value are represented as t1/2.
The subject of series [4] is A-10 rat thoracic aorta cells. The series can be described thus: PDGF-stimulated smooth muscle cell proliferation assay (BrdU). The series is classed as cell-based. The note with it: for Proliferation at 10 μM: 10 μM test compound.
Procedure: Effects on cell proliferation were measured using a bromodeoxyuridine (BrdU) incorporation assay. […] Serum free media containing 0.1% BSA was added to the cells. 24 hours later the media was removed and replaced with warmed serum free media. […] Proliferation was then monitored using the BrdU Cell Proiferation Assay, HTS (Calbiochem cat. #HTS01). BrdU was allowed to incorporate into cells for 24 hours prior to the addition of fixative/denaturing solution and the fluorometric detection of incorporated BrdU using a BrdU antibody as per manufacturer's directions. Data are reported as a percent of the PDGF-stimulated BrdU incorporation.
In a further series the test system is LPS-challenged mice. The experiment in a line: LPS-induced cytokine production assay (IL-1β in BALF). It counts as in vivo, mouse. The note with it: intratracheal, one hour prior to LPS challenge; BALF four hours after; FIG. 13. Here is the method:
Male BALB/c mice, approximately 19 to 21 grams, were ordered from Charles River Laboratories (Raleigh, N.C.). All animals were challenged with aerosolized LPS (10 μg/ml) for 25 minutes on study day 0. LPS aerosol was generated using an Aerogen Aeroneb nebulizer and controller providing a flow of 400 μl/min and a particle size of 2-4 μm MMAD. Rolipram was administered i.p at 20 mg/kg. […] Total cell counts were determined using the Coulter Counter. For differential evaluations, BALF was centrifuged and cytospin slides prepared and stained […]. Manual leukocyte counts were then completed on 200 cells. The final concentration of individual leukocyte cell types per ml of BALF was determined by multiplication of the relative percentage of individual leukocytes with the total amount of cells/ml of BALF fluid. The concentration of IL-1β in the BALF samples was determined using commercially available Bio-plex kits (Bio-Rad).

Another series concerns the target T2, ROCK2 (Homo sapiens, UniProt O75116).
T2 construct: purchased Upstate/Chemicon 14-451
The series can be described thus: Rho kinase inhibition assay (IMAP), ROCK2. It counts as biochemical. The note with it: average.

Series [5] relates to IL-1β secretion from LPS-stimulated human monocytes. The series can be described thus: Human monocyte cytokine secretion assay (LPS): IL-1β. The series is classed as cell-based. The note with it: average percent of stimulated secretion from human monocytes, 10 μM test compound.
Procedure: (§1) Peripheral blood from healthy human volunteers was collected and the monocytes isolated via Ficoll-paque density centrifugation. […] The cells were allowed to pre-incubate with test compound at the indicated concentration for 30 minutes (37° C., 5% CO2, humidified air); after which the supernatant was removed and media containing compound and 1 ng/mL LPS was added. Cells were allowed to incubate with compounds and LPS for 4 hours at 37° C. after which the supernatant was removed and stored at −80° C. Cytokine concentrations in the supernatant were determined using commercially available Bio-Rad Bio-plex™ kits according the manufacturer's instructions.
Series [6] has as its system TNF-α secretion from LPS-stimulated human monocytes. The experiment in a line: Human monocyte cytokine secretion assay (LPS): TNF-α. The series is classed as cell-based. Conditions: average percent of stimulated secretion from human monocytes, 10 μM test compound.
Procedure: as §1
Series [7] has as its system IL-6 secretion from LPS-stimulated human monocytes. The series can be described thus: Human monocyte cytokine secretion assay (LPS): IL-6. The note with it: average percent of stimulated secretion from human monocytes, 10 μM test compound. The series is classed as cell-based.
Procedure: as §1
The target in the next series is T3, Akt3 (Homo sapiens, UniProt Q9Y243).
T3 construct: purchased Upstate Chemicon 14-502
The experiment in a line: Akt3 inhibition assay (IMAP). It counts as biochemical. Conditions: IMAP FP assay, 30 μM ATP; average.

Series [8] can be described thus: Compound plasma concentrations in unsensitized mice at 15 min post administration. The note with it: for Mouse Oral PK: mean plasma concentration in mice, 15 minutes post oral administration; for Plasma Mean Concentration: mice, 15 min post administration, mean n = 3 mice. It counts as in vivo, mouse.
Procedure: Test compounds were formulated in water or 1% polysorbate 80 and dosed at 15 μmmol/kg for intraperitoneal (IP) or oral (PO) administration or formulated for intratracheal (IT) administration and dosed at 5 μmmol/kg, which directly targets the lungs. Following completion of the in vivo study, mice were euthanized and blood and plasma collected approximately 2.5-3 hours post administration of test compound for bronchodialator (BD) studies and 24 hours post administration for anti-inflamatory (AI) studies. […] Both plasma samples and lung extracts were assayed for compound concentrations using an on-line, solid phase extraction LC/MS/MS system.
The next series addresses T4, p70S6K (Homo sapiens, UniProt P23443, T412E).
T4 construct: purchased Upstate Chemicon 14-486
The experiment in a line: p70S6K inhibition assay (IMAP). It counts as biochemical. Conditions: average.

[9] abbreviates: average percent of PDGF stimulated proliferation.
Where [10] appears, read: IMAP assay, 10 μM ATP, read-out: ROCK2 Ki, Avg.
Where [11] appears, read: IMAP FP assay, 30 μM ATP, read-out: p70S6K Ki, Avg.

Like-named read-outs stand apart in the source and are kept apart here.

T1 sequence (P28482 whole entry): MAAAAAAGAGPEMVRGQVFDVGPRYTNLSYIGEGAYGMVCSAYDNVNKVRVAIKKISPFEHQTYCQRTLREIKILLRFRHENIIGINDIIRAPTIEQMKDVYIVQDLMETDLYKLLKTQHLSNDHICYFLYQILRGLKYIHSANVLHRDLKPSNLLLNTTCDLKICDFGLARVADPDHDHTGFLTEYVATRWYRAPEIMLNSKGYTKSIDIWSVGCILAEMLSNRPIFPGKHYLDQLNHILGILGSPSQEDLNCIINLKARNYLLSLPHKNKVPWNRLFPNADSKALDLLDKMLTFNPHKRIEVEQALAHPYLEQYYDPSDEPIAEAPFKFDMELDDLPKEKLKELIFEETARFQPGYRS
T2 sequence (O75116 11-552 limits assumed): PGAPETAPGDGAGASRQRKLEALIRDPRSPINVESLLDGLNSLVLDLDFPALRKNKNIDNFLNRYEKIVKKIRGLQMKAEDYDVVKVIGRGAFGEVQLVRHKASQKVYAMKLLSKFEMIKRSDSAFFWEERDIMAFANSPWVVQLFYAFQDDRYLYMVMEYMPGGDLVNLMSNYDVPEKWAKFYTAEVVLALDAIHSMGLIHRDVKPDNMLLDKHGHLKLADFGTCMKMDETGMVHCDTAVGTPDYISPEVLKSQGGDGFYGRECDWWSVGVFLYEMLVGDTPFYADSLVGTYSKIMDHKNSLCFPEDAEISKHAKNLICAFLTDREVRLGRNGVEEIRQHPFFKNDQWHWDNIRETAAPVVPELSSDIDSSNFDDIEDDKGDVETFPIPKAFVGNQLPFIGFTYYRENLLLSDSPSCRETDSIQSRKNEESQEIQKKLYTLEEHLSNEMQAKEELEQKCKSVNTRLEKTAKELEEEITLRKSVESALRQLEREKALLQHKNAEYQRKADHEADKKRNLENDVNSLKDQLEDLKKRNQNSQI
T4 sequence (P23443 1-421 T412E limits assumed): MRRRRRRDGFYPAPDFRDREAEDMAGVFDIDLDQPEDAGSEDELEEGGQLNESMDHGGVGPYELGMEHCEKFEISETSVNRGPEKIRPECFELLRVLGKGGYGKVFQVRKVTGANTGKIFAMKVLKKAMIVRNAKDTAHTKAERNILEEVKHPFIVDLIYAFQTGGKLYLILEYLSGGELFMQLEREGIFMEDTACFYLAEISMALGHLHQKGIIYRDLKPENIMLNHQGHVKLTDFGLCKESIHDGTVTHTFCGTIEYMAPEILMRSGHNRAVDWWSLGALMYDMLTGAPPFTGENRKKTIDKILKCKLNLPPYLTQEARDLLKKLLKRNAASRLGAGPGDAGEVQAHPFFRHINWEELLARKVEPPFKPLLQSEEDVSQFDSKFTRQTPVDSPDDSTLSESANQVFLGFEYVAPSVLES
T3 sequence (Q9Y243 whole entry): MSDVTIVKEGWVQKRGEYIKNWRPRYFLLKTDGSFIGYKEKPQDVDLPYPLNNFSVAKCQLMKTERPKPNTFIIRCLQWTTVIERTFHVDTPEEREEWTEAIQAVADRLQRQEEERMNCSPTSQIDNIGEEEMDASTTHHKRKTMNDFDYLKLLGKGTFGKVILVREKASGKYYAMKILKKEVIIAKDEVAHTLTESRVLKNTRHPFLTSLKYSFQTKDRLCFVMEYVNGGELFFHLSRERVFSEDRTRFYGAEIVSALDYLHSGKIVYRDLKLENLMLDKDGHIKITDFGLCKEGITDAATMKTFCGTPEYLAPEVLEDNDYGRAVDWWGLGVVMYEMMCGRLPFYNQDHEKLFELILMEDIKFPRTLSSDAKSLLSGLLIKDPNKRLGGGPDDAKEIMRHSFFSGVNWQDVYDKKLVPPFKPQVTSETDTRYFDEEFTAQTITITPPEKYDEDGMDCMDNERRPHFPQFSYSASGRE
Procedure for Akt3: (§2) Inhibition of Akt3 and p70S6K activity was determined using the IMAP™ FP Progressive Binding Kit (Molecular Devices product number R8127). […] Following the pre-incubation, 30 μM ATP was added to initiate the reaction. After 60 minutes at RT, Molecular Devices IMAP™ binding solution was added to bind phosphorylated substrate. After 30 minutes of incubation in the presence of the IMAP™ beads the fluorescence polarization was read and the ratio was reported as mP. IC50 results were calculated using the Prism software from Graphpad. The Ki values were determined according to the following formula: Ki=IC50/(1+([ATP Challenge]/EC50 ATP)).
Procedure for ROCK2: Following the pre-incubation, 10 μM ATP was added to initiate the reaction. After 60 minutes at room temperature, Molecular Devices IMAP™ binding solution was added to bind phosphorylated substrate. After 30 minutes of incubation in the presence of the IMAP™ beads, the fluorescence polarization was read and the ratio was reported as mP. IC50 values for compounds and EC50 values for ATP were calculated using the Prism software from Graphpad.
Procedure for p70S6K: as §2

On to `Cc1ccc(CN2CCC[C@@H](Nc3ccc4[nH]ncc4c3)C2)cc1OCCO` [Compound 1.161], for which, on ERK2, the activity at 1 µM came out at 104% and the activity at 10 µM was 92%. Further, the airway hyperreactivity result in series [1] is reported as “prevention of airway hyperreactivity”.
As for `c1cc2cc(CN3CCC[C@@H](Nc4ccc5[nH]ncc5c4)C3)ccc2o1` [Compound 1.131], the “eosinophils per ml of BALF” value in series [2] is “reduced”. Moreover, the “airway hyperreactivity to methacholine on Day 32” value in series [1] (oral 15 μMol/kg once a day) is recorded as “prevention of airway hyperreactivity”.
Consider `CSc1ccc(CN2CC[C@@H](Nc3cccc4cnccc34)C2)cc1` [Compound 2.026], for which, in series [3], the “AUC (0-last)” value was “BLQ”, the Cmax entry is on record as “BLQ”, the Tmax result is listed as “BLQ” and the Vz_F entry is listed as “BLQ”. Further, in [3], the t½ entry was “BLQ”. For the same compound, the “Proliferation at 10 μM” value in [4] (setting [9]) came to 52.0%.
As for `CCc1ccc(CN2CCC[C@@H](Nc3ccc4[nH]ncc4c3)C2)cc1` [Compound 1.136], in series [3], the “AUC (0-last)” value is on record as “BLQ”, the Cmax entry is reported as “BLQ”, the Tmax result was “BLQ” and the Vz_F result is listed as “BLQ”. Besides, the t½ entry in [3] is recorded as “BLQ”.
Take `NC(=O)Cn1ccc2cc(CN3CC[C@@H](Nc4cccc5cnccc45)C3)ccc21` [Compound 2.059]: at ERK2, the activity at 1 µM was determined as 56% and the activity at 10 µM is 12%. The airway hyperreactivity result in series [1] is listed as “prevention of airway hyperreactivity”. Also, the “IL-1β in BALF” value with LPS-challenged mice is “reduction”.
Take `Cc1ccc(CN2CCC[C@@H](Nc3ccc4[nH]ncc4c3)C2)cc1NS(=O)(=O)N(C)C` [Compound 1.262]: the Ki on ROCK2 (setting [10]) was found to be 0.004 µM; on ROCK2 (read-out: ROCK2 Ki) it was 0.004 µM; at Akt3 it was 0.861 µM. This compound had an IL-1β in series [5] of 145.7%. The compound further registered a TNF-α in [6] of 135.3%. In series [7], the IL-6 amounted to 156.6%.
As to `NC(=O)COc1cccc(CN2CCC[C@H](Nc3ccc4[nH]ncc4c3)C2)c1` [Compound 1.195], in series [8], the “Mouse Oral PK” value is 108 nM and the “Plasma Mean Concentration” value is recorded as 107.9 nM. Further, the Ki on p70S6K (setting [11]) is 2.73 µM. Further, the Ki on p70S6K (read-out: p70S6K Ki) was determined as 2.73 µM.
On to `Cc1ccc(CN2CCC[C@H](Nc3ccc4[nH]ncc4c3)C2)cc1NS(=O)(=O)N(C)C` [Compound 1.237], for which the Ki amounted to 0.004 µM on ROCK2 (setting [10]), 0.004 µM on ROCK2 (read-out: ROCK2 Ki) and 7.91 µM at Akt3. The IL-1β in series [5] came out at 97.1%. Also, in [6], the TNF-α is 70.6%. Also, in [4] (1 μM, 10 ng/mL PDGF), the “Percent of PDGF Induced Proliferation at 1 μM Avg” value turned out to be 63.5%. Also, the “Percent of PDGF Induced Proliferation at 10 μM Avg” value in series [4] (10 μM, 10 ng/mL PDGF) came out at 51.4%. Also, the “Proliferation at 1 μM” value in [4] (average percent of PDGF stimulated proliferation, 1 μM test compound) was 63.5%. Besides, the “Proliferation at 10 μM” value in series [4] (setting [9]) turned out to be 51.4%. Further, the IL-6 in series [7] worked out at 100.9%.
Take `OCCn1ccc2cc(CN3CC[C@@H](Nc4cccc5cnccc45)C3)ccc21` [Compound 2.066]: the activity at 10 µM at ERK2 came out at 12%. The airway hyperreactivity entry in [1] is “prevention of airway hyperreactivity”.
As for `COc1ccc(CN2CCC[C@H](Nc3ccc4[nH]ncc4c3)C2)cc1` [Compound 1.079], the “Mouse Oral PK” value in [8] was found to be 2443 nM. Besides, in series [8], the “Plasma Mean Concentration” value came to 2442.5 nM. The Ki on p70S6K (setting [11]) and on p70S6K (read-out: p70S6K Ki) was 3.01 µM each time.
The compound `OCCOc1cccc(CN2CCC[C@@H](Nc3ccc4[nH]ncc4c3)C2)c1` [Compound 1.092] registered a Vz_F in series [3] of 19.0 L/kg.

For orientation: Ki means a dissociation constant, usually derived from enzyme kinetics or from competition with a known ligand.

For the origin of these results see patent US20130158014A1, “METHOD FOR TREATING DISEASES ASSOCIATED WITH ALTERATIONS IN CELLULAR INTEGRITY USING RHO KINASE INHIBITOR COMPOUNDS” (priority 2008, published 2013).
